Molecules are shown by their SMILES. Calls of active or inactive are those of the source. The rule behind the calls is not given here.

Consider 4 compounds from ChEMBL document CHEMBL1140841, “Synthesis and biological evaluation of trimethyl-substituted cap analogs” (Bioorg Med Chem Lett, 2008).

In one experiment the test system is HeLa. The experiment is described as follows: Translation efficiency in human HeLa cells assessed as luciferase activity. It is filed as functional, cell-based.
The nature of experiment [1]: mRNA capping efficiency after 2 hrs by gel shift assay relative to control. For orientation: In EMSA bound probe runs differently from free probe, usually more slowly.
The subject of the next experiment is Escherichia phage T7. In words: Effect on Enterobacteria phage T7 RNA polymerase RNA transcription after 2 hrs.

In the case of `CO[C@@H]1[C@H](O)[C@@H](n2c[n+](C)c3c(=O)[nH]c(N)nc32)O[C@H]1COP(=O)([O-])OP(=O)(O)OP(=O)(O)OC[C@H]1O[C@@H](n2cnc3c(=O)[nH]c(N)nc32)[C@H](O)[C@@H]1O`, the result with HeLa and with Escherichia phage T7 was Active. In addition, the Activity in experiment [1] turned out to be 52%.
As to `C[n+]1cn([C@@H]2O[C@H](COP(=O)(O)OP(=O)([O-])OP(=O)([O-])OC[C@@H]3O[C@H](n4c[n+](C)c5c(=O)[nH]c(N)nc54)[C@@H](O)[C@H]3O)[C@@H](O)[C@H]2O)c2nc(N)[nH]c(=O)c21`, the result in the experiment with HeLa and in the experiment on Escherichia phage T7 was Active. The Activity in experiment [1] came out at 56%.
Turning to `C[n+]1cn([C@H]2O[C@@H](COP(=O)([O-])OP(=O)(O)OP(=O)(O)OC[C@H]3O[C@@H](n4cnc5c(=O)[nH]c(N)nc54)[C@H](O)[C@@H]3O)[C@H](O)[C@@H]2O)c2nc(N)[nH]c(=O)c21`, in experiment [1], the Activity was found to be 61%.
For the compound `CO[C@@H]1[C@H](O)[C@@H](n2c[n+](C)c3c(=O)[nH]c(N)nc32)O[C@H]1COP(=O)([O-])OP(=O)(O)OP(=O)([O-])OC[C@H]1O[C@@H](n2c[n+](C)c3c(=O)[nH]c(N)nc32)[C@H](O)[C@@H]1O`, the result in the experiment on HeLa and with Escherichia phage T7 was Active. Moreover, the Activity in experiment [1] was determined as 51%.
